From the NIST ThermoML archive (doi:10.1016/j.fluid.2013.03.030)

What was measured:
[1] = xn = mol fraction of the nth substance listed; settings: 298.15 K, 100 kPa, Liquid, Sing-around technique in a fixed-path interferometer
[2] = refractive index (other wavelength) (dimensionless); wn = mass fraction of the nth substance listed; settings: 298.15 K, 100 kPa, Liquid, Wavelength=589.3 nm, Digital Refractometer Mettler Toledo
[3] = wn = mass fraction of the nth substance listed; settings: 298.15 K, 100 kPa, Liquid; for viscosity: Capillary tube (Ostwald / Ubbelohde) method; for mass density: Vibrating tube method

CCCC[P+](CCCC)(CCCC)CCCC.F[B-](F)(F)F [tetrabutylphosphonium tetrafluoroborate] + O
Settings | mass density, [3] [kg/m3] | refractive index, [2] | speed of sound, [1] [m/s] | viscosity, [3] [mPa·s]
w1 = 0.001 | 997.16 | 1.3326 | – | 0.901
w1 = 0.003 | 998.67 | 1.3333 | – | 0.909
w1 = 0.005 | 1000.05 | 1.3341 | – | 0.914
x1 = 0.001 | – | – | 1498.9 | –
x1 = 0.003 | – | – | 1502.6 | –
x1 = 0.005 | – | – | 1507.5 | –
